Source: patent publication US20040185460A1, “Novel mixed lineage kinase (7) (mlk7) polypeptide polynucleotides encoding the same and methods of use thereof” (priority 2001, published 2004)

Tested on: baculoviral human GST-MLK7KD and GST-MLK7KD/LZ
Details: data not shown; shows requirement for metal ions (Mg+2)

O=C(O)CN(CCN(CC(=O)O)CC(=O)O)CC(=O)O [EDTA]
activities of GST-MLK7KD and GST-MLK7KD/LZ: inhibited
